The numbers were not newly measured in patent US20230201171A1, “COMPOSITIONS AND METHODS FOR PREVENTING POST-ERCP PANCREATITIS” (THE BOARD OF TRUSTEES OF THE LELAND STANFORD JUNIOR …, priority 2020, published 2023), which cites them from elsewhere.

The test system of the data set is post-ERCP pancreatitis (PEP). Particulars: rectal indomethacin alone, current standard of care.

Regarding `COc1ccc2c(c1)c(CC(=O)O)c(C)n2C(=O)c1ccc(Cl)cc1` [rectal indomethacin, indomethacin], the “effectiveness of PEP prophylaxis” value is 35-40%.
